“Also recorded” adds a separate entry of the source. Counter-ions that a name gives are not always drawn. One block for each compound: values may come before it.
Key:
Assay type in all cases: cell-based
human alpha4beta2 nAChRs [1] = target: T1, human alpha4beta2 nAChRs (Homo sapiens, UniProt P17787+P43681); assay: Positive allosteric modulation of agonist-evoked currents, two-electrode voltage clamp in Xenopus oocytes (Example 1)
T1 construct: expressed in transfected cells; host or cells: Xenopus laevis oocytes (cDNA injection)
T1 sequence (P43681 29-627 limits assumed): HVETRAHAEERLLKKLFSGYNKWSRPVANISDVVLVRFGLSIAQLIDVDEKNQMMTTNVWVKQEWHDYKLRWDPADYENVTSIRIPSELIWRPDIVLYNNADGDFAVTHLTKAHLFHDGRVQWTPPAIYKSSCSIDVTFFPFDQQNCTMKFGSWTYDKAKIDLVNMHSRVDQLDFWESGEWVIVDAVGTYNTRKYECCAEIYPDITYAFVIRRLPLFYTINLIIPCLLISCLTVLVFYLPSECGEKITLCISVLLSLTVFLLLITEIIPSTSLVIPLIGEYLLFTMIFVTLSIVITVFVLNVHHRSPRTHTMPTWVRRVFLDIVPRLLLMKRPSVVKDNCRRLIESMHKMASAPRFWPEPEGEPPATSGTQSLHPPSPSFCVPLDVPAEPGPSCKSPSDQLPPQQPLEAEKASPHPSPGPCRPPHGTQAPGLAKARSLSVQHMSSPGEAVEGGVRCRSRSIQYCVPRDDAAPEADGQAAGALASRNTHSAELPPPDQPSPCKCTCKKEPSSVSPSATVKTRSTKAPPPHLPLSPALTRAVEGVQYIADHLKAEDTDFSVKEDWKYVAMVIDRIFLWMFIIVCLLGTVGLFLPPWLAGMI
T1 sequence (P17787 26-502): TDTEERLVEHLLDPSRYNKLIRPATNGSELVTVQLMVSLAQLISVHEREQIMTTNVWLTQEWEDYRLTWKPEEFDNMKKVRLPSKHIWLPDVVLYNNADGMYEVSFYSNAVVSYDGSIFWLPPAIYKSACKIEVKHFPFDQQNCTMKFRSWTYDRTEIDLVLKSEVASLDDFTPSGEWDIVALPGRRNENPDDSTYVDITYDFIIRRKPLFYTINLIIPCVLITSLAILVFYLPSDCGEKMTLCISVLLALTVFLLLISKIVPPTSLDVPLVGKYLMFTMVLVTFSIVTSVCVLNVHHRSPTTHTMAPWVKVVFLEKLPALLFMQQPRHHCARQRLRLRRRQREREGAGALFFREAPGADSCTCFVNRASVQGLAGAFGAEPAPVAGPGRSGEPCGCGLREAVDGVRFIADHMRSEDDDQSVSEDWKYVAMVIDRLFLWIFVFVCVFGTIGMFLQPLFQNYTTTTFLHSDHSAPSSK
Method: • Acetylcholine chloride • 100 mM stock solution in bi-distilled water 1.3 Test system • Apparatus: Automated Injection and Recording Apparatus, HiQScreen • Species of donor animals: Xenopus • Strain of animals: Laevis • Origin (supplier) of animals: HiQScreen Sàrl, Geneva • Body Weight of animals: 150 g to 300 g • Animal maintenance 3 to 5 per vivarium • Room temperature: 20-22° C. • Lighting times: Vivarium were exposed to daylight with additional artificial lighting (6 am-8 pm in summer; 8 am-7 pm in winter). • Food: Food pellets, ad libitum • Source of biological material • and isolation procedure: Abdominal incision to remove ovaries • Experimental conditions in Oocyte incubation: Barth solution containing in mM NaCl 88, • vitro: […] OR2 medium containing in mM: […] Two-electrode voltage clamp, using proprietary automated system equipped with a Geneclamp amplifier (Axon Instrument, Foster City, Calif., USA), or HiClamp (Multichannel Systems, Germany) Abbreviations: Ach, Acetylcholine; nAChR, Nicotinic acetylcholine receptor; SEM, Standard error of the mean; PAM, Positive allosteric modulator All experiments were carried out at human nAChRs expressed in Xenopus oocytes using the method of cDNA expression. Xenopus oocytes were prepared and injected using standard procedures. Briefly, ovaries were harvested from Xenopus Laevis females that have been deeply anesthetized by cooling at 4° C. and Tricaine methanesulfonate (MS-222 at a concentration of 150 mg/L) in sodium bicarbonate (300 mg/L). Once anesthetized the animal was decapitated and pithed following the rules of animal rights from the Geneva canton. […] All recordings were performed at 18° C. and cells superfused with OR2 medium containing in mM: […] Currents evoked by ACh or other agonists were recorded using an automated process equipped with standard two-electrode voltage-clamp configuration (TEVC). Data were captured and analyzed using a HiQScreen proprietary data acquisition and analysis software running under Matlab (Mathworks Inc.). […] Compounds were dissolved in OR2 as stock solution (1 mM) and the final dilution to the desired concentration was made on the day of the experiment. Injections of cDNAs encoding for the human alpha4beta2, were performed in at least 95 oocytes were performed using a proprietary automated injection device (Hogg et al., J. Neurosci. Methods, 2008) and receptor expression examined at least two days later. Oocytes were poked with two electrodes and their membrane potential maintained, unless indicated, at −80 mV throughout the experiment. A protocol to determine the allosteric modulation at the alpha4beta2 nAChRs in the oocytes expressing the receptor was developed. Oocytes expressing alpha4beta2 nAChRs were exposed to increasing concentrations of ACh while the response was evaluated. This was repeated with the addition of a fixed concentration of the allosteric modulator. The current evoked from the exposure to the agonist with the modulator was recorded and compared to currents evoked in the absence of the modulator. To assess the effects of positive allosteric modulators (Br-PBTC and NS-9283) a protocol of determination of the concentration activation curve in absence and presence of the PAM was designed. […] To assess the positive allosteric modulator effects of NS-9283 at the compound 1 hemi-galactarate dihydrate the same experimental protocol was conducted using 1 μM of the modulator. […] To further evaluate the PAM effects, the modulation was measured either as a first application and compared versus the subsequent agonist evoked response or, vice versa, by first exposing the cell to the agonist alone and then to the PAM and the agonist applied during a sustained PAM exposure. […] The same experiment was then conducted for compound 1 hemi-galactarate dihydrate as the agonist and Br-PBTC as the modulator or NS-9283 as the modulator.

human alpha4beta2 nAChRs [2] = target: T1, human alpha4beta2 nAChRs; assay: Desensitization by sustained (1 hour) agonist exposure and recovery, without and with PAM, Xenopus oocytes (Example 1)
[3] = target: T2, human nAChR alpha3alpha5beta4 (Homo sapiens, UniProt P30532+P30926+P32297); assay: Agonist activity, two-electrode voltage clamp in Xenopus oocytes (Examples 2 and 5); conditions: for agonist character: versus ACh response, mono-citrate
T2 construct: expressed in transfected cells; host or cells: Xenopus laevis oocytes (cDNA injection)
T2 sequence (P32297 32-505): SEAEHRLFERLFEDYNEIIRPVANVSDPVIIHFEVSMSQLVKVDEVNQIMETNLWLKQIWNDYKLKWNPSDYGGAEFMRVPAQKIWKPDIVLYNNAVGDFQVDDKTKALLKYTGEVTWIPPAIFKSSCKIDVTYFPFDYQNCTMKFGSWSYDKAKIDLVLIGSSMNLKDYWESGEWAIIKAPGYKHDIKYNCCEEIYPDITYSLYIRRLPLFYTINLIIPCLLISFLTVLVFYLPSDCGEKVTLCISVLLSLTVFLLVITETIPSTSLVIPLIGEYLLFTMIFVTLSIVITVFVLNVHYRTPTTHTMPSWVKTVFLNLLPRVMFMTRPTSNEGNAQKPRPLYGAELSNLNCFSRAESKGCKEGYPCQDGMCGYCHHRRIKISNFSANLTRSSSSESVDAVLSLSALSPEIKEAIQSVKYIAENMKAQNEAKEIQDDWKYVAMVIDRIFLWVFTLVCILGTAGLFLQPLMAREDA
T2 sequence (P30532 23-468): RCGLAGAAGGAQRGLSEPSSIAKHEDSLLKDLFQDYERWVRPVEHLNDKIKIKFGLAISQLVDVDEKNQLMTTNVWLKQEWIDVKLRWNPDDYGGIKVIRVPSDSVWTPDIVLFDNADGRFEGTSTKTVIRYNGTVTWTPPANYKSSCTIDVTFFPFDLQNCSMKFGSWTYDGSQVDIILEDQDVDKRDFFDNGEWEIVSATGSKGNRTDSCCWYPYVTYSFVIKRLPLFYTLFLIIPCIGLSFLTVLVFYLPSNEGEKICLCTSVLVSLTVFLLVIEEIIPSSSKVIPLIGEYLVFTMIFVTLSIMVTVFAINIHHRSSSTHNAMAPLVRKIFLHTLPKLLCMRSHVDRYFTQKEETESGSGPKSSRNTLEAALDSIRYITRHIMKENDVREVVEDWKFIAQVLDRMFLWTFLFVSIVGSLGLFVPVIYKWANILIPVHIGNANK
T2 sequence (P30926 22-498): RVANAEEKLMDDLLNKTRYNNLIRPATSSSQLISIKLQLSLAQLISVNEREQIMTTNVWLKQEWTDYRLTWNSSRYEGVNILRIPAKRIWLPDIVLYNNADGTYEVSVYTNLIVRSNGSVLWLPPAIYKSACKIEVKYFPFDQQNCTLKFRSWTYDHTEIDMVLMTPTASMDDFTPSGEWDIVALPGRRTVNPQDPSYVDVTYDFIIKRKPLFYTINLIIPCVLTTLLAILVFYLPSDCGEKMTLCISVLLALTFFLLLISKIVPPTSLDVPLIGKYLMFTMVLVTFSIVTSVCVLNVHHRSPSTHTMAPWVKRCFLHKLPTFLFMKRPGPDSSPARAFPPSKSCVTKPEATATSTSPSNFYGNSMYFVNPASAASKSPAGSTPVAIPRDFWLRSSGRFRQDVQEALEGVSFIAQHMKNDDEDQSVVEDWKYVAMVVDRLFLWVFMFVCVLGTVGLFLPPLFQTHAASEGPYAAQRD
Method: (§1) All experiments were carried out at human nAChRs expressed in Xenopus oocytes using the method of cDNA expression. Xenopus oocytes were prepared and injected using standard procedures.
(§2) Briefly, ovaries were harvested from Xenopus Laevis females that have been deeply anesthetized by cooling at 4° C. and Tricaine methanesulfonate (MS-222 at a concentration of 150 mg/L) in sodium bicarbonate (300 mg/L). Once anesthetized the animal was decapitated and pithed following the rules of animal rights from the Geneva canton. A small piece of ovary was isolated for immediate preparation while the remaining part was placed at 4° C. in a sterile Barth solution containing in mM NaCl 88, KCl 1, NaHCO32.4, HEPES 10, MgSO4.7H2O 0.82, Ca(NO3)2.4H2O 0.33, CaCl2.6H2O 0.41, at pH 7.4, and supplemented with 20 μg/ml of kanamycin, 100 unit/ml penicillin. All recordings were performed at 18° C. and cells superfused with OR2 medium containing in mM: NaCl 88, KCl 2.5, HEPES 5, CaCl2.2H2O 1.8, MgCl2.6H2O 1, pH 7.4.
(§3) Currents evoked by ACh or other agonists were recorded using an automated process equipped with standard two-electrode voltage-clamp configuration (TEVC). Data were captured and analyzed using a HiQScreen proprietary data acquisition and analysis software running under Matlab (Mathworks Inc.).
(§4) See Example 1. […] The test concentration of acetylcholine chloride was 1280 micromolar.
(§5) Injections of cDNAs encoding for the human alpha3beta4, alpha3alpha5beta4, alpha4beta2, and alpha7 were performed in at least 95 oocytes were performed using a proprietary automated injection and receptor expression examined at least two days later. Oocytes were poked with two electrodes and their membrane potential maintained, unless indicated, at −80 mV throughout the experiment.
(§6) A protocol to determine agonistic activity in the oocytes expressing the nAChRs was developed. The cells were exposed to a series of increasing concentrations of a compound agonist for 10 seconds each at two minute intervals. The current evoked from exposure to the agonist at each concentration was recorded. For oocytes expressing alpha7 nAChRs, exposure to the agonist was reduced to 5 seconds. This process was repeated for each agonist tested against each type of nAChR expressing cell.
(§7) To evaluate the agonistic properties of compound 1 hemi-galactarate dihydrate a protocol of brief exposures to a series of growing concentrations of compound 1 hemi-galactarate dihydrate was used.
(§8) Agonist Preparation: See Example 1. […] The test concentration of acetylcholine chloride was 1280 micromolar.
as §5, with “Experimental Procedures: Injections” for “Injections”, “alpha4beta2, alpha4alpha6beta2,” for “alpha4beta2,”, “oocytes” for “oocytes were performed”, “injection device. Cellular” for “injection and”, “expression was” for “expression”
as §6, with “developed. Oocytes expressing a nAChR subtype were exposed to a brief test pulse of acetylcholine (1280 micromolar) while the holding current and response was evaluated. Cells displaying robust currents were washed for 90 seconds.” for “developed.”, “were then” for “were”, “nAChR” for “compound”, “intervals. The nAChR agonist test concentrations were 0.1, 0.3, 1, 3, 10, 30, 100, 300 (micromolar).” for “intervals.”

human nAChR alpha3beta4 = target: T3, human nAChR alpha3beta4 (Homo sapiens, UniProt P30926+P32297); assay: as above; conditions: for agonist character: versus ACh response, mono-citrate
T3 construct: expressed in transfected cells; host or cells: Xenopus laevis oocytes (cDNA injection)
T3 sequence (P32297 32-505): as the sequence (P32297 32-505) above
T3 sequence (P30926 22-498): as the sequence (P30926 22-498) above
Method: as §1, §2, §3, §4, §5, §6, §7, §8
as §5, with “Experimental Procedures: Injections” for “Injections”, “alpha4beta2, alpha4alpha6beta2,” for “alpha4beta2,”, “oocytes” for “oocytes were performed”, “injection device. Cellular” for “injection and”, “expression was” for “expression”
as §6, with “developed. Oocytes expressing a nAChR subtype were exposed to a brief test pulse of acetylcholine (1280 micromolar) while the holding current and response was evaluated. Cells displaying robust currents were washed for 90 seconds.” for “developed.”, “were then” for “were”, “nAChR” for “compound”, “intervals. The nAChR agonist test concentrations were 0.1, 0.3, 1, 3, 10, 30, 100, 300 (micromolar).” for “intervals.”

human nAChR alpha4beta2 = target: T4, human nAChR alpha4beta2 (Homo sapiens, UniProt P17787+P43681); assay: as above; conditions: for agonist character: versus ACh response
T4 construct: expressed in transfected cells; host or cells: Xenopus laevis oocytes (cDNA injection)
T4 sequence (P43681 29-627 limits assumed): as the sequence (P43681 29-627 limits assumed) above
T4 sequence (P17787 26-502): as the sequence (P17787 26-502) above
Method: as §1, §2, §3, §4, §5, §6, §7, §8
as §5, with “Experimental Procedures: Injections” for “Injections”, “alpha4beta2, alpha4alpha6beta2,” for “alpha4beta2,”, “oocytes” for “oocytes were performed”, “injection device. Cellular” for “injection and”, “expression was” for “expression”
as §6, with “developed. Oocytes expressing a nAChR subtype were exposed to a brief test pulse of acetylcholine (1280 micromolar) while the holding current and response was evaluated. Cells displaying robust currents were washed for 90 seconds.” for “developed.”, “were then” for “were”, “nAChR” for “compound”, “intervals. The nAChR agonist test concentrations were 0.1, 0.3, 1, 3, 10, 30, 100, 300 (micromolar).” for “intervals.”

human nAChR alpha7 = target: T5, human nAChR alpha7 (Homo sapiens, UniProt P36544); assay: as above; conditions: for percent of the maximal ACh-evoked current: at 300 μM (300 micromolar) agonist; for percent of the maximal ACh-evoked current / agonist character: mono-citrate; for agonist character: versus ACh response
T5 construct: expressed in transfected cells; host or cells: Xenopus laevis oocytes (cDNA injection)
T5 sequence (P36544 23-502): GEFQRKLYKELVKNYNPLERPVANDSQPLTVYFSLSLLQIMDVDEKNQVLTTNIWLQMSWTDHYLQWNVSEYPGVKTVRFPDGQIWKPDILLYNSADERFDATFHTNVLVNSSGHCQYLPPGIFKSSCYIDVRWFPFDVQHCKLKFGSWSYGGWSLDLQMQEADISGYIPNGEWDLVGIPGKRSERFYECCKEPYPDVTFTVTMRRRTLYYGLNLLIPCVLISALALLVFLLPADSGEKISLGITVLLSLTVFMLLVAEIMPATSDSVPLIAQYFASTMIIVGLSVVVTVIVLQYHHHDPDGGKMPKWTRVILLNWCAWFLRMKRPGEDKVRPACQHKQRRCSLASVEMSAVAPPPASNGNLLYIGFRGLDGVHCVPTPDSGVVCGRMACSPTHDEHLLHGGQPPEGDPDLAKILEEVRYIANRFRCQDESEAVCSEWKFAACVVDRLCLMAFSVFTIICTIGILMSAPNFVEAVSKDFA
Method: as §1, §2, §3, §4, §5, §6, §7, §8
as §5, with “Experimental Procedures: Injections” for “Injections”, “alpha4beta2, alpha4alpha6beta2,” for “alpha4beta2,”, “oocytes” for “oocytes were performed”, “injection device. Cellular” for “injection and”, “expression was” for “expression”
as §6, with “developed. Oocytes expressing a nAChR subtype were exposed to a brief test pulse of acetylcholine (1280 micromolar) while the holding current and response was evaluated. Cells displaying robust currents were washed for 90 seconds.” for “developed.”, “were then” for “were”, “nAChR” for “compound”, “intervals. The nAChR agonist test concentrations were 0.1, 0.3, 1, 3, 10, 30, 100, 300 (micromolar).” for “intervals.”

[4] = target: T6, human nAChR alpha4alpha6beta2 (Homo sapiens, UniProt P17787+P43681+Q15825); assay: Agonist activity, two-electrode voltage clamp in Xenopus oocytes (Example 5); conditions: for agonist character: versus ACh response, mono-citrate
T6 construct: expressed in transfected cells; host or cells: Xenopus laevis oocytes (cDNA injection)
T6 sequence (P43681 29-627 limits assumed): as the sequence (P43681 29-627 limits assumed) above
T6 sequence (Q15825 26-494): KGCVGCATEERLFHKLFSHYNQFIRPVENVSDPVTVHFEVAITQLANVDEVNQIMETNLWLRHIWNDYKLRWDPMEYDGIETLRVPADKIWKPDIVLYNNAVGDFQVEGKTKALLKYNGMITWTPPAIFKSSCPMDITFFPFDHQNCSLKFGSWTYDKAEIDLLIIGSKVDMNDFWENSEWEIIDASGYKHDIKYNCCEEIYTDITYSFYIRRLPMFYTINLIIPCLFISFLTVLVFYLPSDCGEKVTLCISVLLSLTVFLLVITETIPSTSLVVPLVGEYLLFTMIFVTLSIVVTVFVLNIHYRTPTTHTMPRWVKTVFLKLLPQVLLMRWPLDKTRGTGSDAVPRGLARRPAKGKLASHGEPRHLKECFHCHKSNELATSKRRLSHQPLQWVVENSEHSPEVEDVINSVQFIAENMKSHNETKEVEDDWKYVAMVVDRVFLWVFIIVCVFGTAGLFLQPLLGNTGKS
T6 sequence (P17787 26-502): as the sequence (P17787 26-502) above
Method: as §1, §2, §3, §8
as §5, with “Experimental Procedures: Injections” for “Injections”, “alpha4beta2, alpha4alpha6beta2,” for “alpha4beta2,”, “oocytes” for “oocytes were performed”, “injection device. Cellular” for “injection and”, “expression was” for “expression”
as §6, with “developed. Oocytes expressing a nAChR subtype were exposed to a brief test pulse of acetylcholine (1280 micromolar) while the holding current and response was evaluated. Cells displaying robust currents were washed for 90 seconds.” for “developed.”, “were then” for “were”, “nAChR” for “compound”, “intervals. The nAChR agonist test concentrations were 0.1, 0.3, 1, 3, 10, 30, 100, 300 (micromolar).” for “intervals.”

[5] = presence vs absence of 1 μM PAM

dependence of potentiation on the order of agonist and PAM application (human alpha4beta2 nAChRs [1]; agonist compound 1 hemi-galactarate dihydrate): independent on the exposure protocol | maximal current evoked by compound 1 hemi-galactarate dihydrate (human alpha4beta2 nAChRs [1]; [5]): no significant increase | shift of the concentration activation curve to compound 1 hemi-galactarate dihydrate (human alpha4beta2 nAChRs [1]; [5]): significant shift to the left
Structure (SMILES): N#Cc1cccc(-c2nc(-c3cccnc3)no2)c1 [NS-9283, 3-[3-(3-Pyridinyl)-1,2,4-oxadiazol-5-yl]benzonitrile]
positive allosteric modulator activity in the presence of compound 1 hemi-galactarate dihydrate (human alpha4beta2 nAChRs [1]; 1 μM PAM): acts as a positive allosteric modulator; also recorded: potentiate the agonistic activity | effect of PAM on recovery from varenicline tartrate desensitization (human alpha4beta2 nAChRs [2]; 300 μM varenicline tartrate 1 hour, 1 μM PAM, wash of 3 hours): failed to significantly modify the recovery time course | effect of PAM on amplitude of the current evoked by varenicline tartrate (human alpha4beta2 nAChRs [2]; 300 μM varenicline tartrate, 1 μM PAM): enhanced the response | effect of PAM on profile of compound 1 hemi-galactarate dihydrate desensitization and recovery (human alpha4beta2 nAChRs [2]; 1 mM agonist, co-application of 1 μM modulator): minimal effect

Structure (SMILES): C(=C\[C@H]1CCNC1)/c1cncnc1 [compound 1 citrate, (R)-5-((E)-2-pyrrolidin-3-ylvinyl)pyrimidine mono-citrate]
EC50 ([3]; Example 5, read-out: EC50): 83 ± 9.05 µM | agonist character ([3]; listed as Compound 1 citrate): almost as a full agonist | agonist character [3]: almost full agonist | EC50 (human nAChR alpha3beta4; read-out: EC50): 34.9 ± 4.53 µM | agonist character (human nAChR alpha3beta4; listed as Compound 1 citrate): almost as a full agonist | agonist character (human nAChR alpha3beta4): almost full agonist | EC50 (human nAChR alpha4beta2; Example 5, read-out: EC50): 13.5 ± 2.06 µM | effect on the subsequent ACh-evoked current (human nAChR alpha4beta2; after exposure to the agonist concentration series, mono-citrate): Significant inhibition | agonist character (human nAChR alpha4beta2; listed as Compound 1 citrate, mono-citrate): almost as a full agonist | agonist character (human nAChR alpha4beta2; mono-citrate): almost full agonist | fraction of the maximal ACh-evoked current (human nAChR alpha7; 300 micromolar concentration): 25% | EC50 (human nAChR alpha7; Example 5, only an estimation): 126 ± 28.5 µM | percent of the maximal ACh-evoked current (human nAChR alpha7; listed as Compound 1 citrate): 25% | percent of the maximal ACh-evoked current (human nAChR alpha7): 25% | agonist character (human nAChR alpha7; listed as Compound 1 citrate): poor agonist | agonist character (human nAChR alpha7): weak partial agonist | EC50 [4]: 13.1 ± 3.68 µM | agonist character ([4]; listed as Compound 1 citrate): almost as a full agonist | agonist character [4]: almost full agonist
